Laboratory results published in patent US11318178B2, “Lactobacillus reuteri ATG-F4 strain having function of enhancing dopamine secretion and pharmaceutical composition comprising same for prevention or treatment of psychopathy” (ATOGEN CO., LTD, priority 2018, dated 2022).

Tests used:
[1] = system: mouse macrophage cell line RAW264.7; assay: IL-10 ELISA of culture solution of RAW264.7 cells with or without LPS; type: cell-based; conditions: 1 μg/ml LPS alone (positive control), 24 hr
Protocol: In order to measure the anti-inflammatory effect of F4 lactic-acid bacteria, a cytokine quantification experiment using cells was performed. F4 lactic-acid bacteria as a treatment material were subjected to liquid culture in an MRS broth and were then centrifuged, after which the cells of the strain were recovered and concentrated 10-fold. The concentrated solution thus obtained was treated with lysozyme for 1 hr, lysed through sonication, and then quantified through solid content analysis. […] In order to confirm whether the generation of nitric oxide (NO) as an additional inflammation indicator was inhibited in the LPS-induced group, a predetermined amount of the cell culture supernatant obtained in the cell experiment for measuring cytokines was transferred into 96 wells, and 100 μl of a Griess reagent (modified, SIGMA, USA) was injected thereto, after which reaction was carried out at room temperature for 10 min and absorbance at 540 nm was measured using an ELISA reader. The amount of NO that was produced was calculated by comparing the proportion of NO present in the cell culture solution with the LPS-treated group as a control.

serotonin = assay: Serum serotonin ELISA after 4-week feeding of mice; type: in vivo, C57BL/6J mice; conditions: 4 weeks in drinking water (F4 about 10^7 CFU/ml; ampicillin 1 g/l); control 3537.2 ng/ml
From the text: (§1) Before all animal experiments, animal experimentation was approved and approval number ATG-IACUC-REV-180810 was granted through appropriate procedures by the Institutional Animal Care and Use Committee (IACUC) of AtoGEN, and a guide to ethical animal experiments was followed. 4-week-old C57BL/6J mice were purchased through Central Laboratory Animal (Seoul, Korea), and the experimental groups that were used were a control fed with general feed and drinking water (Ctrl), a gut microbiota dysbiosis experimental group (Amp) fed with general feed and drinking water containing 1 g/l of ampicillin, and an experimental group fed with general feed and drinking water containing about 10^7 CFU/ml of lactic-acid bacteria F4 (F4). Five mice were used for each experimental group. After stabilizing the 4-week-old mice for 1 week, the experiment was conducted for 4 weeks using the experimental groups described above. The entire experiment was independently repeated twice.
(§2) After the 4-week feeding experiment, the mice were anesthetized using ether, and blood was obtained from the heart thereof. […] The serum thus obtained was measured to determine the amounts of dopamine and serotonin in the blood using a dopamine ELISA kit (Abnova, Taiwan) and a serotonin ELISA kit (Abcam, USA).

dopamine = assay: Serum dopamine ELISA after 4-week feeding of mice; type: in vivo, C57BL/6J mice; conditions: 4 weeks in drinking water (F4 about 10^7 CFU/ml; ampicillin 1 g/l); control 2.95 ng/ml
From the text: as §1, §2

| Compound | IL-10 production [1] [pg/mL] | serotonin in serum (serotonin) [ng/mL] | dopamine in serum (dopamine) [ng/mL] |
| --- | --- | --- | --- |
| lipopolysaccharide [LPS] | 166.60 | – | – |
| CC1(C)S[C@@H]2[C@H](NC(=O)[C@H](N)c3ccccc3)C(=O)N2[C@H]1C(=O)O [Amp, ampicillin] | – | 2365.0 | 2.09 |
